The results in this text go back to US20080085881A1, “Stop-and-go oxaliplatin treatment regimens” (priority 2006, published 2008).

Holding throughout (assay type): in vivo, patients
The subject of data set [1] is advanced colorectal cancer. Description: OPTIMOX1 study: FOLFOX4 until progression (arm A) versus stop-and-go FOLFOX7 (arm B). Conditions: OPTIMOX1, previously untreated advanced colorectal cancer. Here is the method:
The OPTIMOX1 study examined the effect of oxaliplatin reintroduction in previously untreated patients with advanced colorectal cancer. The details of this study have been recently published by Tournigand et al., J. Clin. Oncol. (January 2006);24:394, and they are incorporated herein by reference. Two different FOLFOX regimens were used in the study: FOLFOX4 and FOLFOX7. The FOLFOX4 regimen comprises oxaliplatin 85 mg/m^2 given as a 2-hour infusion on day 1, leucovorin 200 mg/m^2 given as a 2-hour infusion on days 1 and 2, and 5-FU given on days 1 and 2 as a bolus of 400 mg/m^2 that is followed directly by a 22-hour infusion of 5-FU 600 mg/m^2 on each day. The oxaliplatin infusion on day 1 is given concurrently with leucovorin, and on each day the 5-FU bolus directly follows the 2-hour infusion of leucovorin. FOLFOX7 comprises oxaliplatin 130 mg/m^2 and leucovorin 200 mg/m^2 given concurrently as 2-hour infusions on day 1, followed directly by a 46 hour infusion of 5-FU at 2400 mg/m^2. In some patients, the I-leucovorin isomer was used, but at half the mg/m^2 dosage for dI-leucovorin.
Patients were randomized to either FOLFOX4 every 2 weeks until progression (arm A), or FOLFOX7 for 6 cycles, maintenance with leucovorin-5-FU but without oxaliplatin for 12 […], and reintroduction of FOLFOX7 (arm B). […]

Data set [2] concerns advanced colorectal cancer. Description: Retrospective analysis of OPTIMOX1: effect of oxaliplatin reintroduction on overall survival (Cox model, centers grouped by reintroduction class). The procedure: A retrospective analysis was used to evaluate the effect of oxaliplatin reintroduction on overall survival. The percentage of patients with oxaliplatin reintroduction was calculated in each center regardless of treatment arm, number of patients, or whether reintroduction was per protocol. A Cox model was used to analyze the impact of oxaliplatin reintroduction on survival, after adjustment for all baseline covariates, and using random effects to account for the fact that the percentage of patients with oxaliplatin reintroduction was estimated in each center. Centers were grouped by percentage of oxaliplatin reintroduction into 4 reintroduction classes defined according to the percentage of patients with oxaliplatin reintroduction (0, 1-20, 21-40, and >40). The hazard ratio (HR; adjusted for all baseline covariates) was calculated for each reintroduction class, using centers with no reintroduction (0%) as the reference group.

Data set [3] is described as follows: OPTIMOX1 study: neurotoxicity. Conditions: stopping oxaliplatin after the sixth cycle. An excerpt: Sensory neurotoxicity can be measured using known techniques and graded using defined criteria. For example, the National Cancer Institute Common Toxicity Criteria (NCI CTC) version 2.0 can be used to grade sensory neuropathy. Using these criteria, an NCI grade of 0 means that there is no change associated with the treatment. NCI grade 1 indicates the loss of deep tendon reflexes or paresthesia (including tingling) not interfering with function. […] NCI Grade 3 indicates sensory loss or paresthesia that interferes with activities of daily living. NCI Grade 4 is reserved for permanent sensory loss that interferes with function.
The OPTIMOX1 study examined the effect of oxaliplatin reintroduction in previously untreated patients with advanced colorectal cancer. The details of this study have been recently published by Tournigand et al., J. Clin. Oncol. (January 2006);24:394, and they are incorporated herein by reference. Two different FOLFOX regimens were used in the study: FOLFOX4 and FOLFOX7. The FOLFOX4 regimen comprises oxaliplatin 85 mg/m^2 given as a 2-hour infusion on day 1, leucovorin 200 mg/m^2 given as a 2-hour infusion on days 1 and 2, and 5-FU given on days 1 and 2 as a bolus of 400 mg/m^2 that is followed directly by a 22-hour infusion of 5-FU 600 mg/m^2 on each day. […]

As for `O=C1[O][Pt]2([NH][C@@H]3CCCC[C@H]3[NH]2)[O]C1=O` [oxaliplatin], the “prognostic value of oxaliplatin reintroduction for overall survival” value in data set [1] is “independent prognostic factor for improved overall survival”. Also, the Median survival in data set [2] (>40% reintroduction class) is on record as 23 months; in data set [2] (reference group (0% reintroduction)), 15 months. The “impact of percentage of patients with oxaliplatin reintroduction on survival” value in data set [2] (after adjustment for all other factors, p<0.001) is recorded as “highly significant impact on survival”. Also, in data set [2] (after adjustment for all other factors, p=0.02), the “impact of reintroduction class on survival” value is recorded as “significant impact on survival”. For the same compound, the “Adjusted survival hazard ratio (95% C.I.)” value in data set [2] (centers with 0% patients with oxaliplatin reintroduction (reference group)) was 1.00 (reference); in data set [2] (centers with 1–20% patients with oxaliplatin reintroduction, versus 0% reference) it was 0.91 (0.56–1.48); in data set [2] (centers with 21–40% patients with oxaliplatin reintroduction, versus 0% reference), 0.78 (0.50–1.21); in data set [2] (centers with >40% patients with oxaliplatin reintroduction, versus 0% reference), 0.59 (0.38–0.91). Also, the “risk of grade 3 or 4 neurotoxicity” value in data set [3] is on record as “reduced risk”.
